Tested on: mononucleosomes
Assay: LANA peptide competition
Format: binding
Protocol: The LANA peptide competition was set up in a similar manner as the peptide pull-down experiments with the following exceptions: SMARCB1-CC (aa 351-385) biotin-labeled peptides at 10 μM in EB150 were bound to Streptavidin Dynabeads® (Pierce™ Streptavidin Magnetic Beads, Thermo Scientific) in parallel to […] of mononucleosomes incubated with LANA peptide (KE Biochem) at varying concentrations ranging from 0-30 μM overnight at 4° C. Beads were washed 3 times in EB150, and resuspended with the mononucleosome/LANA peptide solutions. The suspension was rotated for 3-5 hours at 4° C. The beads were washed 3-5 times in EB150, and eluted in Sample Buffer (2×LDS with 200 mM DTT) to load onto […] Tricine gels.

MAPPGMRLRSGRSTGAPLTRGSC [LANA Peptide]
antagonism of SMARCB1 CC domain-nucleosome interaction in competition experiments: only partially antagonized | changes in SMARCB1 C-terminal domain peptide-nucleosome binding in LANA peptide competition (1-20 uM concentration gradient, visualization of H3): minimal changes

Reference: patent publication US20220396604A1, “COMPOSITIONS COMPRISING MODIFIED SMARCB1 AND USES THEREOF” (Dana-Farber Cancer Institute, Inc., priority 2019, published 2022)
